Assay results reported in ChEMBL document CHEMBL1154283, “Chrotacumines A-D, chromone alkaloids from Dysoxylum acutangulum” (J Nat Prod, 2009).

Columns and labels:
Type in all cases: functional, cell-based
HL-60 = experiment: Cytotoxicity against human HL60 cells after 48 hrs by MTT assay; details: HL-60, 48 h
HCT-116 = experiment: Cytotoxicity against human HCT116 cells after 48 hrs by MTT assay; details: HCT-116, 48 h
NCI-H226 = experiment: Cytotoxicity against human NCI-H226 cells after 48 hrs by MTT assay; details: NCI-H226, 48 h
MCF7 = experiment: Cytotoxicity against human MCF7 cells after 48 hrs by MTT assay; details: MCF7, 48 h
A549 = experiment: Cytotoxicity against human A549 cells after 48 hrs by MTT assay; details: A549, 48 h

SMILES | IC50 (HL-60) [µM] | IC50 (HCT-116) [µM] | IC50 (NCI-H226) [µM] | IC50 (MCF7) [µM] | IC50 (A549) [µM]
Cc1cc(=O)c2c(O)cc3c(c2o1)[C@@H]1C[C@H](O3)N(C)C[C@H]1OC(=O)c1ccccc1 [CHROTACUMINE A] | > 10 |  |  |  | 
C/C=C(\C)C(=O)O[C@@H]1CN(C)CC[C@@H]1c1c(O)cc(O)c2c(=O)cc(C)oc12 [CHROTACUMINE B] | > 10 |  |  |  | 
COc1cc(C(=O)O[C@@H]2CN(C)CC[C@@H]2c2c(O)cc(O)c3c(=O)cc(C)oc23)cc(OC)c1OC [CHROTACUMINE C] | > 10 |  |  |  | 
COc1ccc(C(=O)O[C@@H]2CN(C)CC[C@@H]2c2c(O)cc(O)c3c(=O)cc(C)oc23)cc1OC [CHROTACUMINE D] | > 10 |  |  |  | 
Cc1cc(=O)c2c(O)cc(O)c([C@H]3CCN(C)C[C@H]3O)c2o1 [ROHITUKINE] | 7.5 | 8.8 | > 10 | > 10 | > 10
